Consider 16 compounds from patent publication US8258151B2, “3-aminoimidazo [1,2-A] pyridine derivatives as SGLT inhibitors” (Merck Patent GmbH, priority 2006, dated 2012).

The target in one assay is T1, SGLT2 (Homo sapiens, UniProt P31639).
T1 construct: expressed in transfected cells
T1 sequence (P31639 1-672): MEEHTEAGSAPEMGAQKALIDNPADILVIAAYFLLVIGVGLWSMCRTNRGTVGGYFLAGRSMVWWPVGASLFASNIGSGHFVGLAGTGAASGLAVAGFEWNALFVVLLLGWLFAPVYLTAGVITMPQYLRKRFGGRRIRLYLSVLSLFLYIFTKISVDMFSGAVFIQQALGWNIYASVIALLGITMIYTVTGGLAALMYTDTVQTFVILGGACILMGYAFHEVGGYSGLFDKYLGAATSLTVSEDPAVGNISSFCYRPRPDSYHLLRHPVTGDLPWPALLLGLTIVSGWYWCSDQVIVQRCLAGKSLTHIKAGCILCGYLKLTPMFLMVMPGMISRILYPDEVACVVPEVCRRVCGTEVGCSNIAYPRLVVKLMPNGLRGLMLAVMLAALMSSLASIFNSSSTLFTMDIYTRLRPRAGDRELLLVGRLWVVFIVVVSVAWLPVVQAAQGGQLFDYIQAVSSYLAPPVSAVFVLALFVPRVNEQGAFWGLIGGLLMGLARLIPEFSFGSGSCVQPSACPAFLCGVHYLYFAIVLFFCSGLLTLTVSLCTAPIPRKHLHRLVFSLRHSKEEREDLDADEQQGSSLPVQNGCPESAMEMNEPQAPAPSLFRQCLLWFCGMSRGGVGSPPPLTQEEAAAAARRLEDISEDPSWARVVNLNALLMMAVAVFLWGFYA
The assay is described as follows: SGLT2 activity measurement: 14C-AMG uptake in BHK cells transfected with SGLT2. In kind it is cell-based. The following applies: AMG 2 mM, 37° C., 90 min. From the text:
(§1) The compounds can be tested on their SGLT inhibition properties by means of BHK cells expressing SGLT1 and SGLT2. The production of the cells and the testing can be carried out as described below.
To construct the SGLT2 expression vector (KL224), the SLC5A2 gene (homologous to NM_003041) was amplified from a cDNA library using standard PCR technology and cloned over NheI/XhoI sites into PCI-neo expression vector (Promega) containing neomycin as a selection marker. In this vector, transcription used the enhancer/promoter of human cytomegalovirus and the SV40 polyadenylation signal.
(§2) The final vector KL224 together with an additional vector containing a dihydrofolate reductase gene as a selection marker was introduced into cells. Transfection into BHK21 cells (ATCC CCL-10), cultivated in DMEM medium (GIBCO/BRL), supplemented with 10% foetal calf serum (FCS) and 20 mM glutamine, was carried out using calcium phosphate transfections according to Graham, F. L. and van der Ebb, A. J. (1973), Virology 52: 456 with 5-20 μg of uncut plasmids for 10^7 cells. Stable transfectants were selected in medium containing 1 mg/ml of G418 (GIBCO/BRL) and 20-5000 nM methotrexate as final concentration, where only cells which expressed the neomycin gene and overexpressed the dhfr gene were able to grow. After growth for 2-3 weeks, the cells were cloned (0.5 cells/well) and the clones were investigated for SGLT expression in the radioactive uptake assay.
Principally, uptake of ^14C-α-methyl-D-glucopyranoside (AMG) in, for example, Xenopus oocytes injected with the corresponding cRNA has been described (for example Wen-Sen Lee et al. (1994), J. Biol. Chem. 269, 12032-12039; Guofeng You et al. (1995), J. Biol. Chem. 270, 29365-29371).
(§3) A 96-well cell-based assay was developed and adapted to HTS requirements:
(§4) BHK cells (transfected with SGLT1 or SGLT2) were seeded into 96-well microtitre plates (Cultureplates, Perkin Elmer). After at least 24 h, medium was removed and the cell layer was washed with assay buffer (140 mM NaCl, 2 mM KCl, 1 mM CaCl2, 1 mM MgCl2, 10 mM HEPES, 5 mM Tris, adjusted with 1 M KOH to pH 7.4). After addition of 40 μl of assay buffer, 50 μl of AMG (50 μM for SGLT1 and 2 mM for SGLT2) in the presence or absence of compounds, the cells were incubated in a total volume of 100 μl at 37° C. for 90 min. Supernatant was removed by suction and discarded. The cells were washed and lysed by addition of 50 μl water. After 10 minutes at room temperature 200 μl Microscint 40 (Perkin Elmer) were added. The radioactivity was counted in a Topcount microplate scintillation counter (Perkin Elmer). The non-specific uptake was determined in sodium-free assay buffer (266 mM sucrose, 2 mM KCl, 1 mM CaCl2, 1 mM MgCl2, 10 mM HEPES, 5 mM Tris, adjusted with 1 M KOH to pH 7.4).

Another assay deals with T2, SGLT1 (Homo sapiens, UniProt P13866).
T2 construct: expressed in transfected cells
T2 sequence (P13866 1-664): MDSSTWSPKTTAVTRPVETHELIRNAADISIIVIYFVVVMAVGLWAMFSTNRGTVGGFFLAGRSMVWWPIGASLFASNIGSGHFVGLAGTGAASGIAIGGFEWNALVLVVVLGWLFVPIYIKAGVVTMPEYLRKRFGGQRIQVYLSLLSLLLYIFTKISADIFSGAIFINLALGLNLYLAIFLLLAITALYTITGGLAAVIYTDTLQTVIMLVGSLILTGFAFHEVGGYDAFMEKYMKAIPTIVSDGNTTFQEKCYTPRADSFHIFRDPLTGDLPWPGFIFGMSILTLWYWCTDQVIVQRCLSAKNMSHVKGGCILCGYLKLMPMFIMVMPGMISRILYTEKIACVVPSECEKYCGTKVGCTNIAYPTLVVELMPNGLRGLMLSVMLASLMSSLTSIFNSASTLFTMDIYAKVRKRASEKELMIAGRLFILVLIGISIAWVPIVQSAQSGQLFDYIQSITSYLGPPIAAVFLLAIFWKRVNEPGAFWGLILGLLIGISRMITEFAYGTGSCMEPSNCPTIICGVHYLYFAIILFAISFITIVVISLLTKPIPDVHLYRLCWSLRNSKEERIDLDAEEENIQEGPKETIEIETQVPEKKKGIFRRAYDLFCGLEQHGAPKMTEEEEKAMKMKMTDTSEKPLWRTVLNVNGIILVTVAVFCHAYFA
The assay is described as follows: SGLT1 activity measurement: 14C-AMG uptake in BHK cells transfected with SGLT1. Type of assay: cell-based. The following applies: AMG 50 μM, 37° C., 90 min.
Source text: as §1
To construct the SGLT1 expression vector (KL225), the SLC5A1 gene (homologous to NM_000343) was amplified from a cDNA library using standard PCR technology and cloned over NheI/XhoI sites into pcDNA3.1 expression vector (Invitrogen) containing neomycin as a selection marker. In this vector, transcription uses the enhancer/promoter of human cytomegalovirus.
as §2, with “KL225” for “KL224”, “assay. […]” for “assay.”
as §3, §4

For `COc1cccc(OCC(N)=O)c1-c1nc2ccc(F)cn2c1Nc1c(C)cccc1C` [Compound A1, 2-[2-(aminocarbonylmethoxy)-6-methoxyphenyl]-3-(2,6-dimethylphenylamino)-6-fluoroimidazo[1,2-a]pyridine], the half-inhibitory concentration (IC50) against SGLT2 fell in the range of 10 to 1000 nM; on SGLT1, 1000 to 10000 nM.

On to `Cc1cccc(C)c1Nc1c(-c2c(C)cccc2OCC(N)=O)nc2ccc(F)cn12` [Compound A2, 2-[2-(aminocarbonylmethoxy)-6-methylphenyl]-3-(2,6-dimethylphenylamino)-6-fluoroimidazo[1,2-a]pyridine], for which the IC50 against SGLT2 lay within 10 to 1000 nM; against SGLT1, 1000 to 10000 nM.

Consider `Cc1cccc(C)c1Nc1c(-c2c(Cl)cccc2OCC(N)=O)nc2ccc(F)cn12` [Compound A3, 2-[2-(aminocarbonylmethoxy)-6-chlorophenyl]-3-(2,6-dimethylphenylamino)-6-fluoroimidazo[1,2-a]pyridine], for which the IC50 is 10 to 1000 nM at SGLT2 and 1000 to 10000 nM against SGLT1.

In the case of `Cc1cccc(C)c1Nc1c(-c2ccccc2OCC(N)=O)nc2ccccn12` [Compound A4, 2-[2-(Aminocarbonylmethoxy)phenyl]-3-(2,6-di-methylphenylamino)imidazo[1,2-a]pyridine], the values for the IC50 at SGLT2 and at SGLT1 were 10 to 1000 nM and > 10000 nM, respectively.

In the case of `NC(=O)COc1ccccc1-c1nc2ccccn2c1Nc1c(Cl)cccc1Cl` [Compound A5, 2-[2-(Aminocarbonylmethoxy)phenyl]-3-(2,6-di-chlorophenylamino)imidazo[1,2-a]pyridine], the IC50 on SGLT2 is 10 to 1000 nM; against SGLT1 it was > 10000 nM.

As to `Cc1cccc(Cl)c1Nc1c(-c2ccccc2OCC(N)=O)nc2ccccn12` [Compound A6, 2-[2-(Aminocarbonylmethoxy)phenyl]-3-(2-chloro-6-methylphenylamino)imidazo[1,2-a]-pyridine], the IC50 was 10 to 1000 nM on SGLT2 and > 10000 nM on SGLT1.

For the compound `Cc1cccc(C(C)C)c1Nc1c(-c2ccccc2OCC(N)=O)nc2ccccn12` [Compound A7, 2-[2-(Aminocarbonylmethoxy)phenyl]-3-(2-isopropyl-6-methylphenylamino)imidazo-[1,2-a]pyridine], the concentration for half-maximal inhibition (IC50) on SGLT2 is 1000 to 10000 nM; on SGLT1, > 10000 nM.

Consider `Cc1cccc(C)c1Nc1c(-c2ccccc2OCC(N)=O)nc2c(C)cccn12` [Compound A8, 2-[2-(Aminocarbonylmethoxy)phenyl]-3-(2,6-di-methylphenylamino)-8-methylimidazo[1,2-a]-pyridine], for which the half-inhibitory concentration (IC50) against SGLT2 was 1000 to 10000 nM; against SGLT1, > 10000 nM.

As to `Cc1cccc(C)c1Nc1c(-c2ccccc2OCC(N)=O)nc2cccc(C)n12` [Compound A9, 2-[2-(Aminocarbonylmethoxy)phenyl]-3-(2,6-di-methylphenylamino)-5-methylimidazo[1,2-a]-pyridine], the IC50 on SGLT2 is 10 to 1000 nM; on SGLT1, > 10000 nM.

Turning to `Cc1cccc(Cl)c1Nc1c(-c2ccccc2OCC(N)=O)nc2cccc(C)n12` [Compound A10, 2-[2-(Aminocarbonylmethoxy)phenyl]-3-(2-chloro-6-methylphenylamino)-5-methyl-imidazo[1,2-a]pyridine], the concentration for half-maximal inhibition (IC50) lay within 10 to 1000 nM against SGLT2 and 1000 to 10000 nM at SGLT1.

In the case of `Cc1cccc2nc(-c3ccccc3OCC(N)=O)c(Nc3c(Cl)cccc3Cl)n12` [Compound A11, 2-[2-(Aminocarbonylmethoxy)phenyl]-3-(2,6-di-chlorophenylamino)-5-methylimidazo[1,2-a]-pyridine], the IC50 lay in the range of 10 to 1000 nM on SGLT2 and 1000 to 10000 nM at SGLT1.

Take `Cc1cccc(C)c1Nc1c(-c2ccccc2OCC(N)=O)nc2cccc(Cl)n12` [Compound A12, 2-[2-(Aminocarbonylmethoxy)phenyl]-3-(2,6-dimethylphenylamino)-5-chloroimidazo[1,2-a]-pyridine]: on SGLT2, the IC50 lay in the range of 1000 to 10000 nM.

In the case of `Cc1cccc(C)c1Nc1c(-c2c(C)cc(OCCN(C)C)cc2OCC(N)=O)nc2ccccn12` [Compound A119, 2-[2-(Aminocarbonylmethoxy)-4-(2-dimethyl-aminoethoxy)-6-methylphenyl]-3-(2,6-dimethyl-phenylamino)imidazo[1,2-a]pyridine], the half-inhibitory concentration (IC50) on SGLT2 is 1000 to 10000 nM.

With `COc1cc(OCC(N)=O)c(-c2nc3ccc(F)cn3c2Nc2c(C)cccc2C)cc1OC` [Compound A189, 2-[2-(Aminocarbonylmethoxy)-4,5-dimethoxy-phenyl]-3-(2,6-dimethylphenylamino)-6-fluoro-imidazo[1,2-a]pyridine], the half-maximal inhibitory concentration (IC50) on SGLT2 lay in the range of 1000 to 10000 nM.

Regarding `COc1cc(C)c(-c2nc3c(O)cccn3c2Nc2c(C)cccc2C)c(OCC(N)=O)c1` [Compound A193, 2-[2-(Aminocarbonylmethoxy)-4-methoxy-6-methylphenyl]-3-(2,6-dimethylphenylamino)-8-hydroxyimidazo[1,2-a]pyridine], the half-maximal inhibitory concentration (IC50) against SGLT2 fell in the range of 1000 to 10000 nM.

`CCc1cc(OC)cc(OCC(N)=O)c1-c1nc2ccc(C(=O)O)cn2c1Nc1c(C)cccc1C` [Compound A223, 2-[2-(Aminocarbonylmethoxy)-4-methoxy-6-ethylphenyl]-3-(2,6-dimethylphenylamino)-6-carboxyimidazo[1,2-a]pyridine] gave an IC50 against SGLT2 of 1000 to 10000 nM.
